This is an account of results in ChEMBL document CHEMBL5465560, “Selectivity Literature for EUbOPEN Chemogenomic Library” (2024).

Usually IC50 stands for the concentration that gives 50% inhibition. Low readings indicate higher potency, high ones lower potency.

The structures appear in SMILES notation.

Test [1] has as its target Calcium/calmodulin-dependent protein kinase type II subunit delta (Homo sapiens) (UniProt Q13557). Briefly: Selectivity interaction (KinomeScan (DiscoverX)) EUB0000092b CAMK2D. To be noted: at 10 µM.
For test [2], the target named is Mitogen-activated protein kinase kinase kinase 10 (Homo sapiens) (UniProt Q02779). Briefly: Selectivity interaction (KinomeScan (DiscoverX)) EUB0001049a MAP3K10. To be noted: at 1 µM.
Mitogen-activated protein kinase kinase kinase 10 (Homo sapiens), sequence (Q02779 whole entry, looked up): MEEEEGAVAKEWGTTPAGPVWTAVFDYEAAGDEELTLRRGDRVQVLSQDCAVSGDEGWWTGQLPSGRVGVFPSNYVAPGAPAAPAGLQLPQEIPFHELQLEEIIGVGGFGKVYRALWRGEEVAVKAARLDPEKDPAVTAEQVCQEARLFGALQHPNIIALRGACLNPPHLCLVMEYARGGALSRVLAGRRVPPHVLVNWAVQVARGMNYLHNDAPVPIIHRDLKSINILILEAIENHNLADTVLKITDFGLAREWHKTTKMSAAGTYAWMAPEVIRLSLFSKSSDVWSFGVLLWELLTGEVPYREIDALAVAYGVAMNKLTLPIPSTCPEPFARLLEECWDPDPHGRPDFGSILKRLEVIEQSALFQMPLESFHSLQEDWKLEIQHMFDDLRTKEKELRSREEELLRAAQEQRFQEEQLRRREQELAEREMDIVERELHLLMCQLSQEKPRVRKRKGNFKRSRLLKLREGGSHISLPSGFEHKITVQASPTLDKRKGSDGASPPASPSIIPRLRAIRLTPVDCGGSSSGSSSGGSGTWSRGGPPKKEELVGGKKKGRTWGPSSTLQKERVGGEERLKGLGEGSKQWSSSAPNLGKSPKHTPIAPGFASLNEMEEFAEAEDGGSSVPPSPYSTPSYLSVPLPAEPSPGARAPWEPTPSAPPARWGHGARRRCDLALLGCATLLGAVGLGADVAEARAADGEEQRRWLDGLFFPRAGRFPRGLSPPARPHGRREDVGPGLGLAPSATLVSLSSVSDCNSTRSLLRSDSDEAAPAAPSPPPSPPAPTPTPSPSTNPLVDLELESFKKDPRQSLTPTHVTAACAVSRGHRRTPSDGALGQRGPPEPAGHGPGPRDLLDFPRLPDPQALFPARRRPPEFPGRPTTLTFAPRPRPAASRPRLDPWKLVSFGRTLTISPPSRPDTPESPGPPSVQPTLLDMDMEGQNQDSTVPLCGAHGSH
Test [3] deals with Serine/threonine-protein kinase PLK2 (Homo sapiens, UniProt Q9NYY3). Briefly: Selectivity interaction (KinomeScan (DiscoverX)) EUB0000655a PLK2. To be noted: at 10 µM.
Test [4] addresses T1, Serine/threonine-protein kinase Sgk3 (Homo sapiens) (UniProt Q96BR1).
T1 sequence (whole entry): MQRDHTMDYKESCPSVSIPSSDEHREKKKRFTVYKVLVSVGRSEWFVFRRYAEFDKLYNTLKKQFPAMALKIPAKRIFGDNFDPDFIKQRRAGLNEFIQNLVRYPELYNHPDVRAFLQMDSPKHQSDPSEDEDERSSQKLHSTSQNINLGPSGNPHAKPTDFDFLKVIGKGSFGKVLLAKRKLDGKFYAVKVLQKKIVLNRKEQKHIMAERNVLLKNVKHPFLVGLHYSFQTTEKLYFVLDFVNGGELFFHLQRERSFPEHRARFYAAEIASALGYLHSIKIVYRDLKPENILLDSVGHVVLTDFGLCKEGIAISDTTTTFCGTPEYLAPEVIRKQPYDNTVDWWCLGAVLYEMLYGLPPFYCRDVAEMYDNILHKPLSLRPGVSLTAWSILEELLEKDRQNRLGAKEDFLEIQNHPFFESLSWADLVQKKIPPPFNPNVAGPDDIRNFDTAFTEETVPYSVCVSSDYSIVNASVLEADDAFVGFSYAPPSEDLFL
Briefly: Selectivity interaction (KinomeScan (DiscoverX)) EUB0000045b SGK3.

Test [5] addresses Serine/threonine-protein kinase PAK 6 (Homo sapiens) (UniProt Q9NQU5). The experiment in a line: Selectivity interaction (SelectScreen profiling (Invitrogen)) EUB0000607a PAK6. To be noted: at 2 µM.
Test [6] addresses T2, Serine/threonine-protein kinase Sgk2 (Homo sapiens) (UniProt Q9HBY8).
T2 sequence (whole entry): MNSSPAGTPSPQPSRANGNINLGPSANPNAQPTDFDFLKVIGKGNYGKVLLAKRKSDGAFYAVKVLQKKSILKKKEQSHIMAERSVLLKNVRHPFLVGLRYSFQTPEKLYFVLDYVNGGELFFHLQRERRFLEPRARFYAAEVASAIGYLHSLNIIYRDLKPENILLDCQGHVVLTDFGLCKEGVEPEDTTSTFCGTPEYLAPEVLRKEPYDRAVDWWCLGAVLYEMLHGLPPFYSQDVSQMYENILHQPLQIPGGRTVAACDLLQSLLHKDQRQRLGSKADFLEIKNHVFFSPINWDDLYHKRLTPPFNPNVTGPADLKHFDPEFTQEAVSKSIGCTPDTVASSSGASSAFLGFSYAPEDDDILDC
The experiment in a line: Selectivity interaction (SelectScreen profiling (Invitrogen)) EUB0000607a SGK2. To be noted: at 2 µM.

Test [7] addresses Tyrosine-protein kinase ABL1 (Homo sapiens, UniProt P00519). Briefly: Selectivity interaction (ActivX KiNativ screen (kinase selectivity in THP-1 cell lysates)) EUB0000639a ABL1. Type of test: subcellular. To be noted: lysate, at 0.01 µM.
Test [8] addresses Serine/threonine-protein kinase PAK 1 (Homo sapiens) (UniProt Q13153). The experiment in a line: Selectivity interaction (Kinase panel (Invitrogen)) EUB0000639a PAK1. To be noted: at 200 nM.
Test [9] relates to Mast/stem cell growth factor receptor Kit (Homo sapiens), P10721 [A829P]. Briefly: (§1) Selectivity interaction (KinomeScan (DiscoverX)) EUB0000229b KIT. To be noted: at 1 µM.
Test [10] has as its system Mast/stem cell growth factor receptor Kit (Homo sapiens), P10721 [D816H]. The test is described as §1. To be noted: at 1 µM.
Test [11] has as its system Mast/stem cell growth factor receptor Kit (Homo sapiens), P10721 [D816V]. Described as §1. To be noted: at 1 µM.
Test [12] relates to Mast/stem cell growth factor receptor Kit (Homo sapiens), P10721 [L576P]. The description is as §1. To be noted: at 1 µM.
Mast/stem cell growth factor receptor Kit (Homo sapiens), P10721 [L576P], sequence (P10721 whole entry L576P): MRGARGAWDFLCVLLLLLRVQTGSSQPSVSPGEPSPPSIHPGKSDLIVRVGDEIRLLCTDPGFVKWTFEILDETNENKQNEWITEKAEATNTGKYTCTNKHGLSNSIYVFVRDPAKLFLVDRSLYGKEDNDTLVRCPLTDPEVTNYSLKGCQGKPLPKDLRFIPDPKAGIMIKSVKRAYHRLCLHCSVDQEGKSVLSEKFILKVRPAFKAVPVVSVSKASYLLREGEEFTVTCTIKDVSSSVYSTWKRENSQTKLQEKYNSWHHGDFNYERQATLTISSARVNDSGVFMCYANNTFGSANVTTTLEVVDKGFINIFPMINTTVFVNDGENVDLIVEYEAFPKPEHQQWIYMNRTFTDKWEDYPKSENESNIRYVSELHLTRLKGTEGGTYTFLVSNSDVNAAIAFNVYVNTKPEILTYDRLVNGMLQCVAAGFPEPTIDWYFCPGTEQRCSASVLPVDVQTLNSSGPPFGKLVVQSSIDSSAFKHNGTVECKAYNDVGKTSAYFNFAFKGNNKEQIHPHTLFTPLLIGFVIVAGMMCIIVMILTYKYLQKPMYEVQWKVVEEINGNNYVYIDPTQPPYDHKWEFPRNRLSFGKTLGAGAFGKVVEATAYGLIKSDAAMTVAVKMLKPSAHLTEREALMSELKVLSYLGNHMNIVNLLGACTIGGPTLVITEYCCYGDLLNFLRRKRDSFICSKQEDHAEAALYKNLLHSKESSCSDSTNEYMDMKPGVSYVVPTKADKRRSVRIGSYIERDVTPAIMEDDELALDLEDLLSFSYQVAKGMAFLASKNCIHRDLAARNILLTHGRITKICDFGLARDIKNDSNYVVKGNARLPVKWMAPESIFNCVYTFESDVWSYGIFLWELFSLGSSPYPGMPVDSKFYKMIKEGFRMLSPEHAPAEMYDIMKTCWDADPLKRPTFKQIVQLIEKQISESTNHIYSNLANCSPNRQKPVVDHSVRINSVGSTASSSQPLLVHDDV
Test [13] deals with Mast/stem cell growth factor receptor Kit (Homo sapiens), P10721 [V559D,T670I]. Described as §1. To be noted: at 1 µM.
For test [14], the system named is Mast/stem cell growth factor receptor Kit (Homo sapiens), P10721 [V559D,V654A]. Described as §1. To be noted: at 1 µM.
Test [15] deals with Mast/stem cell growth factor receptor Kit (Homo sapiens), P10721 [V559D]. The description is as §1. To be noted: at 1 µM.
The target in test [16] is Mast/stem cell growth factor receptor Kit (Homo sapiens, UniProt P10721). The description is as §1. To be noted: at 10 µM.
Test [17] deals with Rho-associated protein kinase 2 (Homo sapiens, UniProt O75116). Briefly: Selectivity interaction (Kinase panel (33PanQinase(R) Activity Assay)) EUB0000877a ROCK2.
Rho-associated protein kinase 2, sequence (O75116 whole entry): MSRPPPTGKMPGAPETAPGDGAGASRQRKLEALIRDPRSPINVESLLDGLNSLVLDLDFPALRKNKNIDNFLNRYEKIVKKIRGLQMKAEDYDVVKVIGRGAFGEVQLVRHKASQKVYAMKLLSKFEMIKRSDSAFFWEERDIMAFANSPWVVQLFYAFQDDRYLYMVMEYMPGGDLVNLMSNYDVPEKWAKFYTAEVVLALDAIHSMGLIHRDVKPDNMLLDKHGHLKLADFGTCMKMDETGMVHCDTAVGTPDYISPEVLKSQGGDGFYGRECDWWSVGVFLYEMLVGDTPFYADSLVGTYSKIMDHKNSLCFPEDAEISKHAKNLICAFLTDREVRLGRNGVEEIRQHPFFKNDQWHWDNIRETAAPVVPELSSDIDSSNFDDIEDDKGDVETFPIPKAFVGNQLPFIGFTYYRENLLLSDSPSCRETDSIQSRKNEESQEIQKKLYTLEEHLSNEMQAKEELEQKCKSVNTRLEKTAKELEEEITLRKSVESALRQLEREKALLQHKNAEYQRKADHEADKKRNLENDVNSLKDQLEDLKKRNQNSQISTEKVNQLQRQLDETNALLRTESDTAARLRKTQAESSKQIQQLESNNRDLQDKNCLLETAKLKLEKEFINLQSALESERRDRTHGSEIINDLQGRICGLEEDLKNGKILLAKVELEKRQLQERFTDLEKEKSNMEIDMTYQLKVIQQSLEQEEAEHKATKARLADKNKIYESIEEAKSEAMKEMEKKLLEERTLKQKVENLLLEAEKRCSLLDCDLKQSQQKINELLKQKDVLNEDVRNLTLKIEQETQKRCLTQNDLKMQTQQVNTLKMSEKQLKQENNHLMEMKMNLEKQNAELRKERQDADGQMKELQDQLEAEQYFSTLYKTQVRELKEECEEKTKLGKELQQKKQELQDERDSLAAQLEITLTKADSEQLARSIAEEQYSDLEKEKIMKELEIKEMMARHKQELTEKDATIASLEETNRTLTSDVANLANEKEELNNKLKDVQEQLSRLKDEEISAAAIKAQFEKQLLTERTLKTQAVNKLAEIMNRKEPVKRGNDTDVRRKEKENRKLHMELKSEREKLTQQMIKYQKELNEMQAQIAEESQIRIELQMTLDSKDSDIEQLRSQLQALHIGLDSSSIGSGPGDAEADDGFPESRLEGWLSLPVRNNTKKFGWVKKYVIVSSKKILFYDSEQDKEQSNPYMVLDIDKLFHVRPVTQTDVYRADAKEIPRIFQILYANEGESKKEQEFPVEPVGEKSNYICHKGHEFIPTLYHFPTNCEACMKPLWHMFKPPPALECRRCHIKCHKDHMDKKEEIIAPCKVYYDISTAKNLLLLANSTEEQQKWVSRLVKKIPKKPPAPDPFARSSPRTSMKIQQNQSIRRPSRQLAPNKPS
Test [18] has as its target Casein kinase II subunit alpha' (Homo sapiens) (UniProt P19784). The experiment in a line: Selectivity interaction (KinomeScan (DiscoverX)) EUB0000595a CSNK2A2. To be noted: at 10 µM.
Test [19] deals with Serine/threonine-protein kinase 10 (Homo sapiens) (UniProt O94804). The experiment in a line: Selectivity interaction (ActivX KiNativ screen (ex vivo kinase selectivity in human PBMCs)) EUB0001619a STK10. Type of test: cell-based. To be noted: PBMC, at 1 µM.
The target of test [20] is T3, Serine/threonine-protein kinase TBK1 (Homo sapiens) (UniProt Q9UHD2).
T3 sequence (whole entry): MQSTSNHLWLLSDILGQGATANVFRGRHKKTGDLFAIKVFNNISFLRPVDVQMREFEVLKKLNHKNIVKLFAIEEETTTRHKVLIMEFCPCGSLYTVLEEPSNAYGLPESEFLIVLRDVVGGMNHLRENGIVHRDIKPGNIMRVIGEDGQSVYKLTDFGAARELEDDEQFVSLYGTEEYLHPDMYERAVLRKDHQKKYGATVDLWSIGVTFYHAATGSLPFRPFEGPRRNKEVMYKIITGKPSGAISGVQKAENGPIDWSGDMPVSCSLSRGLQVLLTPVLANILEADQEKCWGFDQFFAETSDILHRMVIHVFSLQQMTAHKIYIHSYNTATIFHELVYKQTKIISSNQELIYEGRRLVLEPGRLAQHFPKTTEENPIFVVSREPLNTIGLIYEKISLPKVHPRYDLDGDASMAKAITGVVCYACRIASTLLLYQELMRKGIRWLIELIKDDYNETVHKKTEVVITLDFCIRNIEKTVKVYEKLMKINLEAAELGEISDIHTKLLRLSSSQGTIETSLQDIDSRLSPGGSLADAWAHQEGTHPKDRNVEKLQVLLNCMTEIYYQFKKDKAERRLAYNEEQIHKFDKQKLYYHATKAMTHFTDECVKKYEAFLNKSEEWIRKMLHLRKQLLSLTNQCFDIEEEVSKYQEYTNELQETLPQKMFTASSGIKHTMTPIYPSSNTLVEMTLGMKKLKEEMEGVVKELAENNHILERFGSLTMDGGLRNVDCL
The experiment in a line: Selectivity interaction (KinomeScan (DiscoverX)) EUB0001619a TBK1. To be noted: at 1 µM.

Test [21] addresses BDNF/NT-3 growth factors receptor (Homo sapiens) (UniProt Q16620). Briefly: Selectivity interaction (KinomeScan (DiscoverX)) EUB0000618a NTRK2. To be noted: at 10 µM.

Serine/threonine-protein kinase PAK 1 (Homo sapiens), sequence (Q13153 whole entry): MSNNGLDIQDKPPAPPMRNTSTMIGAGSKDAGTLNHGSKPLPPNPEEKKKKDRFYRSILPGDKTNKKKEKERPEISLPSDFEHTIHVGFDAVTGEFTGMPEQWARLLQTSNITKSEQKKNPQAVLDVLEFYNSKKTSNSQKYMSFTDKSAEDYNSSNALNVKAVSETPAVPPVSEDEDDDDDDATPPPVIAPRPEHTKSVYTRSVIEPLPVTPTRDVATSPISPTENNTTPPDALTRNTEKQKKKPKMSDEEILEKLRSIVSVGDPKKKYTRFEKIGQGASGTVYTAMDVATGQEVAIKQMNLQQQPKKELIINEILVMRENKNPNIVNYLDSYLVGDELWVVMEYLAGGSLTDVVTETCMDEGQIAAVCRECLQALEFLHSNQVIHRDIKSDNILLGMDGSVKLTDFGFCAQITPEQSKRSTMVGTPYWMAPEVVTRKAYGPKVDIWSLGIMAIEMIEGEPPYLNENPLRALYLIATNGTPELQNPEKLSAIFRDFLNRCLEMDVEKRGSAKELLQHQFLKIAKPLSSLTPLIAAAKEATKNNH
Mast/stem cell growth factor receptor Kit (Homo sapiens), P10721 [D816V], sequence (P10721 whole entry D816V): as the sequence (P10721 whole entry L576P) above, with P576L, D816V counted along it

As for `CCC(=O)N1CCN(c2ccc(-n3c(=O)ccc4cnc5ccc(-c6cnc7ccccc7c6)cc5c43)cc2C(F)(F)F)CC1`, the % of control in test [1] came out at 72%.

In test [2], `COc1cc(Nc2nc(C)cc(-c3cnn4nc(OC)ccc34)n2)cc(C(F)(F)F)c1` registered a % of control of 100%.

Compound `CN(C)CCOc1ccc(-c2nc(-c3ccncc3)c(-c3ccc4c(c3)CC/C4=N\O)[nH]2)cc1` yielded a % of control in test [3] of 92%.

For the compound `C=CC(=O)Nc1cc(-n2c(=O)ccc3cnc4ccc(-c5ccc(NS(C)(=O)=O)cc5)cc4c32)ccc1C`, the % of control in test [4] (at 1 µM) and in test [4] (at 10 µM) was 100% throughout.

As to `CNC(=O)Nc1ccc(-c2nc(N3CC4CCC(C3)O4)c3cnn(C4CCC5(CC4)OCCO5)c3n2)cc1`, the % of inhibition in [5] amounted to 11%; in [6], 5%.

For the compound `CC[C@@H]1[C@H](F)C(=O)N[C@@H]1COc1nccc2cc(C(N)=O)c(OC)cc12` [ZIMLOVISERTIB], the % of inhibition was 52% in test [7] and -9.19% in test [8].

For the compound `COc1cc(N(C)c2ccnc3ccc(C(F)(F)F)cc23)cc(OC)c1OC`, the % binding in [9] turned out to be 72%; in [10] it was 79%; in [11] it was 95%; in test [12], 100%; in [13] it was 94%; in test [14], 100%. Moreover, the % binding in test [15] worked out at 95%; in test [16], 84%.

On to `CCC(=O)N1CC[C@H](Nc2ncnc3c2CN(c2cnc(OC)c(C(F)(F)F)c2)CC3)C1` [LENIOLISIB], for which the half-inhibitory concentration (IC50) in test [17] is over 10 µM.

`COCC(=O)NC/C=C/c1ccc2ncnc(Nc3ccc(Oc4ccc(C)nc4)c(C)c3)c2c1` [CP-724714] came in with a % of control in test [18] of 100%.

Take `N#Cc1cccc(-c2c[nH]c3ncnc(N4CCOCC4)c23)c1`: the % of inhibition in test [19] worked out at 79%. The compound also came in with a % of control in test [20] of 100%.

In the case of `O[C@H]1CC[C@H](Nc2ncc3nc(Nc4c(F)cc(F)cc4F)n([C@H]4CCOC4)c3n2)CC1`, the % of control in [21] turned out to be 79%.
